In patent US7910752B2, “Anticancer compound, intermediate therefor, and processes for producing these” (Taheebo Japan Co., Ltd., priority 2005, dated 2011):
Like-named read-outs stand apart in the source and are kept apart here.

Assays:
Format in all cases: cell-based
[1] = test system: Human Intestinal Normal Cells (Cell Systems IE Cells); test: Cytotoxicity assay for human intestinal normal cells, trypan blue; conditions: 3 days
Description: (§1) Each human normal cells are preliminarily seeded in 35 mm petri dishes containing Dulbecco's modified Eagle medium (DMEM) containing 20% of fetal bovine serum (FBS) in a concentration of 1×10^5/ml. The resulting cells are incubated at 36° C. for 1 day under 5% CO2, and cells are confirmed to be stuck at the bottom of the petri dishes. A racemate, α-isomer and β-isomer are each dissolved in DMSO to give solutions in concentrations of 0.5 mM, 0.05 mM, 0.005 mM and 0.0005 mM, 2 μL each of which are added to each cells. The resulting cells are incubated at 36° C. for 3 days, and viable cells are counted by using 0.25% trypan blue and viabilities are calculated. A commercially-available anticancer agent mitomycin is also examined as a control in the test against human skin normal cells, and the results are also shown in TABLE 6.

PC-3 cells = test: Antitumor activity against PC-3 cells (2), viable cell count; conditions: Homo sapiens
Description: (§2) PC-3 cells (manufactured by Department of Laboratory Products of Dainippon Pharm. Co. Ltd.) are preliminarily seeded in 35 mm petri dishes containing Dulbecco's modified Eagle medium (DMEM) containing 20% of fetal bovine serum (FBS) in a concentration of 1×10^5/ml. The resulting cells are incubated at 36° C. for 1 day under 5% CO2, and cells are confirmed to be stuck at the bottom of the petri dishes. The resulting PC-3 cells are divided into […], to the first group of which is added (±)-2-(1-hydroxyethyl)-5-hydroxynaphtho[2,3-b]furan-4,9-dione (racemate) in concentrations of 0.5 mM, 0.05 mM and 0.005 mM, and to the second group of which is added adriamycin (Wakenyaku Co. Ltd.) as a control in concentrations of 0.5 mM, 0.05 mM and 0.005 mM. These groups are incubated at 36° C. for 3 days, and viable cells are counted and viability is calculated.
(§3) PC-3 cells obtained in a similar manner in the above (1) are divided into three groups, to the first group of which is added (±)-2-(1-hydroxyethyl)-5-hydroxynaphtho[2,3-b]furan-4,9-dione (racemate) in concentrations of 0.5 mM, 0.05 mM, 0.005 mM and 0.0005 mM, to the second group of which is added an unnatural type 2-(1-hydroxyethyl)-5-hydroxynaphtho[2,3-b]furan-4,9-dione (α-isomer) in concentrations of 0.5 mM, 0.05 mM, 0.005 mM and 0.0005 mM, to the third group of which is added a natural type 2-(1-hydroxyethyl)-5-hydroxynaphtho[2,3-b]furan-4,9-dione (β-isomer) in concentrations of 0.5 mM, 0.05 mM, 0.005 mM and 0.0005 mM, and to the fourth group of which is added mitomycin as a control in concentrations of 0.5 mM, 0.05 mM, 0.005 mM and 0.0005 mM. These groups are incubated at 36° C. for 3 days, and viable cells are counted and viability is calculated.

[2] = test system: A-549 cells (Lung cancer cells); test: Antitumor activity against A-549 cells, viable cell count; conditions: Homo sapiens, A549, 72 h
Description: as §3
Antitumor activity is examined on A-549 cells in a similar manner as in the above (2).

[3] = test system: MCF-7 cells (Breast cancer cells); test: Antitumor activity against MCF-7 cells, viable cell count; conditions: Homo sapiens, MCF7, 72 h
Description: as §3
Antitumor activity is examined on MCF-7 cells in a similar manner as in the above (2).

[4] = test system: Human Hepatic Normal Cells (Cell Systems Hc Cells); test: Cytotoxicity assay for human hepatic normal cells, trypan blue; conditions: 3 days
Description: as §1

[5] = test system: Human Lung Normal Cells (MRC-5); test: Cytotoxicity assay for human lung normal cells, trypan blue; conditions: 3 days
Description: as §1

[6] = test system: Human Skin Normal Cells (Cell System Fb cells); test: Cytotoxicity assay for human skin normal cells, trypan blue; conditions: for Viability %: human skin normal cells, 3 days
Description: as §1

[7] = test system: PC-3 cells (Prostate cancer cells); test: Antitumor activity against PC-3 cells (1), viable cell count; conditions: Homo sapiens, PC-3, 72 h
Description: as §2

SMILES	Viability % ([1]; 0.0005 mM) [%]	Viability % ([1]; 0.005 mM) [%]	Viability % ([1]; 0.05 mM) [%]	Viability % ([1]; 0.5 mM) [%]	viability at 0.5 µM (PC-3 cells; PC-3, 72 h) [%]	viability at 5 µM (PC-3 cells; PC-3, 72 h) [%]	viability at 50 µM (PC-3 cells; PC-3, 72 h) [%]	viability at 500 µM (PC-3 cells; PC-3, 72 h) [%]	viability at 0.5 µM [2] [%]	viability at 5 µM [2] [%]	viability at 50 µM [2] [%]	viability at 500 µM [2] [%]	viability at 0.5 µM [3] [%]	viability at 5 µM [3] [%]	viability at 50 µM [3] [%]	viability at 500 µM [3] [%]	Viability % ([6]; 0.0005 mM) [%]	Viability % ([6]; 0.005 mM) [%]	Viability % ([6]; 0.05 mM) [%]	Viability % ([6]; 0.5 mM) [%]	further results
CC(O)c1cc2c(o1)C(=O)c1cccc(O)c1C2=O (single isomer, unassigned; isomer 2) [β-Isomer, 2-(1-hydroxyethyl)-5-hydroxynaphtho[2,3-b]furan-4,9-dione]	100	70	50	30	40	10	0	0	60	30	10	0	70	50	20	0	100	50	20	10	Viability % ([4]; 0.0005 mM): 100%; Viability % ([4]; 0.005 mM): 50%; Viability % ([4]; 0.05 mM): 20%; Viability % ([4]; 0.5 mM): 10%; Viability % ([5]; 0.0005 mM): 100%; Viability % ([5]; 0.005 mM): 70%; Viability % ([5]; 0.05 mM): 40%; Viability % ([5]; 0.5 mM): 20%
COc1cccc2c1C(=O)c1c(O)c3c(c(O)c1C2=O)C[C@@](O)(C(=O)CO)C[C@@H]3O[C@H]1C[C@H](N)[C@H](O)[C@H](C)O1 [Adriamycin, adriamycin, reference compound]																					viability at 5 µM [7]: 42%; viability at 50 µM [7]: 0%; viability at 500 µM [7]: 0%
CC(O)c1cc2c(o1)C(=O)c1cccc(O)c1C2=O (racemic) [Racemate, (±)-2-(1-hydroxyethyl)-5-hydroxynaphtho[2,3-b]furan-4,9-dione]	100	80	60	40	50	30	0	0	70	50	10	0	90	50	20	0	100	80	50	20	viability at 5 µM [7]: 50%; viability at 50 µM [7]: 0%; viability at 500 µM [7]: 0%; Viability % ([4]; 0.0005 mM): 100%; Viability % ([4]; 0.005 mM): 80%; Viability % ([4]; 0.05 mM): 60%; Viability % ([4]; 0.5 mM): 30%; Viability % ([5]; 0.0005 mM): 100%; Viability % ([5]; 0.005 mM): 80%; Viability % ([5]; 0.05 mM): 60%; Viability % ([5]; 0.5 mM): 30%
CC(O)c1cc2c(o1)C(=O)c1cccc(O)c1C2=O (single isomer, unassigned; isomer 2) [α-Isomer, 2-(1-hydroxyethyl)-5-hydroxynaphtho[2,3-b]furan-4,9-dione]	100	80	60	40	60	30	0	0	70	40	10	0	90	60	30	0	100	70	40	30	Viability % ([4]; 0.0005 mM): 100%; Viability % ([4]; 0.005 mM): 70%; Viability % ([4]; 0.05 mM): 40%; Viability % ([4]; 0.5 mM): 20%; Viability % ([5]; 0.0005 mM): 100%; Viability % ([5]; 0.005 mM): 80%; Viability % ([5]; 0.05 mM): 50%; Viability % ([5]; 0.5 mM): 30%
CO[C@@]12[C@H](COC(N)=O)C3=C(C(=O)C(C)=C(N)C3=O)N1C[C@@H]1N[C@@H]12 [Mitomycin, mitomycin, reference compound]																	60	30	0	0	viability at 0.5 µM (PC-3 cells; 72 h, PC-3 cells, 0.0005 mM, 3 days, read-out: Viability %): 40%; viability at 5 µM (PC-3 cells; 72 h, PC-3 cells, 0.005 mM, 3 days, read-out: Viability %): 10%; viability at 50 µM (PC-3 cells; 72 h, PC-3 cells, 0.05 mM, 3 days, read-out: Viability %): 0%; viability at 500 µM (PC-3 cells; 72 h, PC-3 cells, 0.5 mM, 3 days, read-out: Viability %): 0%; viability at 0.5 µM ([2]; A-549 cells, 0.0005 mM, 3 days, read-out: Viability %): 50%; viability at 5 µM ([2]; A-549 cells, 0.005 mM, 3 days, read-out: Viability %): 10%; viability at 50 µM ([2]; A-549 cells, 0.05 mM, 3 days, read-out: Viability %): 0%; viability at 500 µM ([2]; A-549 cells, 0.5 mM, 3 days, read-out: Viability %): 0%; viability at 0.5 µM ([3]; MCF-7 cells, 0.0005 mM, 3 days, read-out: Viability %): 60%; viability at 5 µM ([3]; MCF-7 cells, 0.005 mM, 3 days, read-out: Viability %): 30%; viability at 50 µM ([3]; MCF-7 cells, 0.05 mM, 3 days, read-out: Viability %): 10%; viability at 500 µM ([3]; MCF-7 cells, 0.5 mM, 3 days, read-out: Viability %): 0%; toxicity to normal cells ([6]; summary in words of TABLE 6): very strong toxicity
